# Experimental data: US20190284536A1, “EPITHELIAL TUMOR CELL CULTURES” (Beijing Percans Oncology Co., Ltd., priority 2016, published 2019)
# Test system: human epithelial tumor cells
# Details: DMEM/F12 based culture medium supplemented with BSA vs without; FIG. 10
# Procedure: DF12: DMEM/F12 based culture medium. DF12+BSA: DMEM/12 based culture medium supplemented with BSA. Cell proliferation was measured by EdU incorporation. Error bars represent standard deviation (SD).
substance,measurement,value
bovine serum albumin [BSA],growth of human epithelial tumor cells (cell proliferation by EdU incorporation),supports the growth
